Tests used:
KRAS G12V mutant = KRAS G12V mutant (Homo sapiens, UniProt P01116, G12V); experiment: GDP-GTP exchange assay (bodipy-GDP for GppNHp, with SOS1), KRAS G12V; format: biochemical; conditions: bodipy-loaded KRAS G12V 2.5 nM, 3 h incubation after GppNHp-SOS1; read-out: G12V_ exchange
Method: (§1) The inhibitor potency of the exemplified compounds was determined in a fluorescence based guanine nucleotide exchange assay, which measures the exchange of bodipy-GDP (fluorescently labeled GDP) for GppNHp (Non-hydrolyzable GTP analog) to generate the active state of KRAS in the presence of SOS1 (guanine nucleotide exchange factor). Inhibitors were serially diluted in DMSO and a volume of 0.1 μL was transferred to the wells of a black low volume 384-well plate. 5 μL/well volume of bodipy-loaded KRAS G12D diluted to 2.5 nM in assay buffer (25 mM Hepes pH 7.5, 50 mM NaCl, 10 mM MgCl2 and 0.01% Brij-35) was added to the plate and pre-incubated with inhibitor for 4 h at ambient temperature. Appropriate controls (enzyme with no inhibitor or with a G12D inhibitor) were included on the plate. The exchange was initiated by the addition of a 5 μL/well volume containing 1 mM GppNHp and 300 nM SOS1 in assay buffer. The 10 μL/well reaction concentration of the bodipy-loaded KRAS G12D, GppNHp, and SOS1 were 2.5 nM, 500 uM, and 150 nM, respectively. The reaction plates were incubated at ambient temperature for 2 h, a time estimated for complete GDP-GTP exchange in the absence of inhibitor. For the KRAS G12V mutant, similar guanine nucleotide exchange assays were used with 2.5 nM as final concentration for the bodipy loaded KRAS proteins and 3 h incubation after adding GppNHp-SOS1 mixture. A cyclic peptide described to selectively bind G12D mutant (Sakamoto et al., BBRC 484.3 (2017), 605-611) or internal compounds with confirmed binding were used as positive controls in the assay plates. Fluorescence intensities were measured on a PheraStar plate reader instrument (BMG Labtech) with excitation at 485 nm and emission at 520 nm.
(§2) Either GraphPad prism or Genedata Screener SmartFit was used to analyze the data. The IC50 values were derived by fitting the data to a four parameter logistic equation producing a sigmoidal dose-response curve with a variable Hill coefficient.
(§3) The symbol “†” indicates IC50≤100 nM, “††” indicates IC50>100 nM but ≤1 μM; and “†††” indicates IC50 is >1 μM but ≤5 μM, “††††” indicates IC50 is >5 μM but ≤10 μM. “NA” indicates IC50 not available.

KRAS G12D = KRAS G12D (Homo sapiens, UniProt P01116, G12D); experiment: GDP-GTP exchange assay (bodipy-GDP for GppNHp, with SOS1), KRAS G12D; format: biochemical; conditions: bodipy-loaded KRAS G12D 2.5 nM, 4 h pre-incubation, 2 h after GppNHp/SOS1; read-out: G12D_exchange
Chain of KRAS G12D (P01116 1-188 isoform P01116-2 G12D): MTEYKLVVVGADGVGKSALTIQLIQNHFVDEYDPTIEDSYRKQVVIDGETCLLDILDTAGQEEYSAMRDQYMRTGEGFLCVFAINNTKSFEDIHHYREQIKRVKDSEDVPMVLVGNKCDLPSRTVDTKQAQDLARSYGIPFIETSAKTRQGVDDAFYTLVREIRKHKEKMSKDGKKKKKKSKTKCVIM
Method: as §1, §2, §3

KRAS G12V = experiment: G12V_cell (cellular assay on KRAS G12V cells, method not named in Table 1); format: cell-based; conditions: cell line and readout not stated
Method: MIA PaCa-2 (KRAS G12C; ATCC® CRL-1420), NCI-H358 (KRAS G12C; ATCC® CRL-5807), A427 (KRAS G12D; ATCC® HTB53), HPAFII (KRAS G12D; ATCC® CRL-1997), YAPC (KRAS G12V; DSMZ ACC382), SW480 (KRAS G12V; ATCC® CRL-228) and NCI-H838 (KRAS WT; ATCC® CRL-5844) cells are cultured in RPMI 1640 media supplemented with 10% FBS (Gibco/Life Technologies). Eight hundred cells per well in RPMI 1640 media supplemented with 2% FBS are seeded into white, clear bottomed 384-well Costar tissue culture plates containing 50 nL dots of test compounds (final concentration is a 1:500 dilution, with a final concentration in 0.2% DMSO). Plates are incubated for 3 days at […], 5% CO2. At the end of the assay, 25 ul/well of CellTiter-Glo reagent (Promega) is added. Luminescence is read after 15 min. with a PHERAstar (BMG). Data are analyzed in Genedata Screener using SmartFit for IC50 values.
MIA PaCa-2 (KRAS G12C; ATCC® CRL-1420), NCI-H358 (KRAS G12C; ATCC® CRL-5807), A427 (KRAS G12D; ATCC® HTB53), HPAFII (KRAS G12D; ATCC® CRL-1997), YAPC (KRAS G12V; DSMZ ACC382), SW480 (KRAS G12V; ATCC® CRL-228) and NCI-H838 (KRAS WT; ATCC® CRL-5844) cells are purchased from ATCC and maintained in RPMI 1640 media supplemented with 10% FBS (Gibco/Life Technologies). The cells are plated at 5000 cells per well (8 uL) into Greiner 384-well low volume, flat-bottom, and tissue culture treated white plates and incubated overnight at […], 5% CO2. The next morning, test compound stock solutions are diluted in media at 3× the final concentration and 4 uL are added to the cells, with a final concentration of 0.1% of DMSO. The cells are incubated with the test compounds for 4 h (G12C and G12V) or 2 hrs (G12D) at 37° C., 5% CO2. Four uL of 4× lysis buffer with blocking reagent (Cisbio) are added to each well and plates are rotated gently (300 rpm) for 30 min. at r.t. Four uL per well of Cisbio anti Phospho-ERK ½ d2 is mixed with anti Phospho-ERK ½ Cryptate (1:1), and added to each well, incubated overnight in the dark at r.t. Plates are read on the Pherastar plate reader at 665 nm and 620 nm wavelengths. Data are analyzed in Genedata Screener using SmartFit for IC50 values.

Chain of KRAS G12V mutant (P01116 1-188 isoform P01116-2 G12V): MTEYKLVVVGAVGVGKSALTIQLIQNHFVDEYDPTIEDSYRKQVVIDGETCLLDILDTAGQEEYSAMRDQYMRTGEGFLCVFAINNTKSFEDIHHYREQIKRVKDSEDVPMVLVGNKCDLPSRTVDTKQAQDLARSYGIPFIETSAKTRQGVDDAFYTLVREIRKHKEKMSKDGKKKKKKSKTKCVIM

Row | SMILES | IC50 (KRAS G12V mutant) [nM] | IC50 (KRAS G12D) [nM] | IC50 (KRAS G12V) [nM]
1 | CC(=O)N1CCC[C@@H]1c1c(Cl)c2c(O[C@@H](C)[C@@H]3CCCN3C)nc3c(F)c(-c4cccc(Cl)c4Cl)c(CCC#N)cc3c2n1[C@H]1[C@H]2CN[C@@H]1C2 [Example 3, 3-(2-((R)-1-Acetylpyrrolidin-2-yl)-1-((1R,4R,5S)-2-azabicyclo[2.1.1]hexan-5-yl)-3-chloro-7-(2,3-dichlorophenyl)-6-fluoro-4-((S)-1-((S)-1-methylpyrrolidin-2-yl)ethoxy)-1H-pyrrolo[3,2-c]quinolin-8-yl)propanenitrile] | ≤ 100 | ≤ 100 | ≤ 100
2 | CC(=O)N1CCC[C@@H]1c1cc2c(O[C@@H](C)[C@@H]3CCCN3C)nc3c(F)c(-c4cccc5c4C(C#N)CCC5)c(C)cc3c2n1[C@H]1[C@H]2CN[C@@H]1C2 (stereo partly drawn) [Example 4, 8-(2-((R)-1-Acetylpyrrolidin-2-yl)-1-((1R,4R,5S)-2-azabicyclo[2.1.1]hexan-5-yl)-6-fluoro-8-methyl-4-((S)-1-((S)-1-methylpyrrolidin-2-yl)ethoxy)-1H-pyrrolo[3,2-c]quinolin-7-yl)-1,2,3,4-tetrahydronaphthalene-1-carbonitrile] | ≤ 100 | ≤ 100 | ≤ 100
3 | CC(=O)N1CCC[C@@H]1c1cc2c(O[C@@H](C)[C@@H]3CCCN3C)nc3c(F)c(-c4cccc(Cl)c4Cl)c(CCC#N)cc3c2n1[C@H]1[C@H]2CN[C@@H]1C2 [Example 1, 3-(2-((R)-1-Acetylpyrrolidin-2-yl)-1-((1R,4R,5S)-2-azabicyclo[2.1.1]hexan-5-yl)-7-(2,3-dichlorophenyl)-6-fluoro-4-((S)-1-((S)-1-methylpyrrolidin-2-yl)ethoxy)-1H-pyrrolo[3,2-c]quinolin-8-yl)propanenitrile] | ≤ 100 | ≤ 100 | ≤ 100
4 | C[C@H](Oc1nc2c(F)c(-c3cccc4ccc(F)cc34)c(CCC#N)cc2c2c1cc(-c1cnn(C)c1C(=O)N(C)C)n2[C@H]1[C@H]2CN[C@@H]1C2)[C@@H]1CCCN1C [Example 2, 4-(1-((1R,4R,5S)-2-Azabicyclo[2.1.1]hexan-5-yl)-8-(2-cyanoethyl)-6-fluoro-7-(7-fluoronaphthalen-1-yl)-4-((S)-1-((S)-1-methylpyrrolidin-2-yl)ethoxy)-1H-pyrrolo[3,2-c]quinolin-2-yl)-N,N,1-trimethyl-1H-pyrazole-5-carboxamide] | ≤ 100 | ≤ 100 | ≤ 100

More lines, now with the values ahead:

Row | IC50 (KRAS G12V mutant) [nM] | IC50 (KRAS G12D) [nM] | IC50 (KRAS G12V) [nM] | SMILES
5 | ≤ 100 | ≤ 100 | ≤ 100 | CC(=O)N1CCC[C@@H]1c1cc2c(O[C@@H](C)[C@@H]3CCCN3C)nc3c(F)c(-c4cccc5ncc(F)cc45)c(CCC#N)cc3c2n1[C@H]1[C@H]2CN[C@@H]1C2 [Example 5, 3-(2-((R)-1-Acetylpyrrolidin-2-yl)-1-((1R,4R,5S)-2-azabicyclo[2.1.1]hexan-5-yl)-6-fluoro-7-(3-fluoroquinolin-5-yl)-4-((S)-1-((S)-1-methylpyrrolidin-2-yl)ethoxy)-1H-pyrrolo[3,2-c]quinolin-8-yl)propanenitrile]
6 | ≤ 100 | ≤ 100 | ≤ 100 | COC(=O)N1C[C@@H](Oc2ccccn2)C[C@@H]1c1cc2c(O[C@@H](C)[C@@H]3CCCN3C)nc3c(F)c(-c4cccc(Cl)c4Cl)c(CCC#N)cc3c2n1[C@H]1[C@H]2CN[C@@H]1C2 [Example 6, Methyl (2R,4S)-2-(1-((1R,4R,5S)-2-azabicyclo[2.1.1]hexan-5-yl)-8-(2-cyanoethyl)-7-(2,3-dichlorophenyl)-6-fluoro-4-((S)-1-((S)-1-methylpyrrolidin-2-yl)ethoxy)-1H-pyrrolo[3,2-c]quinolin-2-yl)-4-(pyridin-2-yloxy)pyrrolidine-1-carboxylate]
7 | ≤ 100 | ≤ 100 | ≤ 100 | CC(=O)N1[C@@H](c2cc3c(O[C@@H](C)[C@@H]4CCCN4C)nc4c(F)c(-c5cccc6c5C(C#N)CCC6)c(C)cc4c3n2[C@H]2[C@H]3CN[C@@H]2C3)C[C@@H]2C[C@@H]21 (stereo partly drawn) [Example 7, 8-(2-((1S,3R,5S)-2-Acetyl-2-azabicyclo[3.1.0]hexan-3-yl)-1-((1R,4R,5S)-2-azabicyclo[2.1.1]hexan-5-yl)-6-fluoro-8-methyl-4-((S)-1-((S)-1-methylpyrrolidin-2-yl)ethoxy)-1H-pyrrolo[3,2-c]quinolin-7-yl)-1,2,3,4-tetrahydronaphthalene-1-carbonitrile]
8 | ≤ 100 | ≤ 100 | ≤ 100 | C[C@H](Oc1nc2c(F)c(-c3cccc(Cl)c3Cl)c(CCC#N)cc2c2c1cc([C@H]1C[C@H](Oc3ncccc3F)CN1C(=O)C1CC1)n2[C@H]1[C@H]2CN[C@@H]1C2)[C@@H]1CCCN1C [Example 9, 3-(1-((1R,4R,5S)-2-Azabicyclo[2.1.1]hexan-5-yl)-2-((2R,4S)-1-(cyclopropanecarbonyl)-4-((3-fluoropyridin-2-yl)oxy)pyrrolidin-2-yl)-7-(2,3-dichlorophenyl)-6-fluoro-4-((S)-1-((S)-1-methylpyrrolidin-2-yl)ethoxy)-1H-pyrrolo[3,2-c]quinolin-8-yl)propanenitrile]
9 | ≤ 100 | ≤ 100 | ≤ 100 | C[C@H](Oc1nc2c(F)c(-c3cccc(Cl)c3Cl)c(CCC#N)cc2c2c1cc([C@H]1C[C@H](OC(F)F)CN1C(=O)C1CC1)n2[C@H]1[C@H]2CN[C@@H]1C2)[C@@H]1CCCN1C [Example 8, 3-(1-((1R,4R,5S)-2-Azabicyclo[2.1.1]hexan-5-yl)-2-((2R,4S)-1-(cyclopropanecarbonyl)-4-(difluoromethoxy)pyrrolidin-2-yl)-7-(2,3-dichlorophenyl)-6-fluoro-4-((S)-1-((S)-1-methylpyrrolidin-2-yl)ethoxy)-1H-pyrrolo[3,2-c]quinolin-8-yl)propanenitrile]
10 | ≤ 100 | ≤ 100 | ≤ 100 | C[C@H](Oc1nc2c(F)c(-c3cccc(Cl)c3Cl)c(CCC#N)cc2c2c1cc([C@H]1C[C@H](F)CN1C(=O)C1CC1)n2[C@H]1[C@H]2CN[C@@H]1C2)[C@@H]1CCCN1C [Example 10, 3-(1-((1R,4R,5S)-2-Azabicyclo[2.1.1]hexan-5-yl)-2-((2R,4S)-1-(cyclopropanecarbonyl)-4-fluoropyrrolidin-2-yl)-7-(2,3-dichlorophenyl)-6-fluoro-4-((S)-1-((S)-1-methylpyrrolidin-2-yl)ethoxy)-1H-pyrrolo[3,2-c]quinolin-8-yl)propanenitrile]
